Data from US20090264342A1, “COMPOSITIONS AND METHODS FOR ANTIBIOTIC POTENTIATION AND DRUG DISCOVERY” (priority 2006, published 2009).

System: S. aureus strain RN4220
Test: MIC of Nor for S. aureus RN4220 and RN4220 recA−
Format: cell-based
Conditions: Staphylococcus aureus
Method: The growth and response to quinolone of S. aureus strain RN4220 (wild type) and its recA^− derivative (RN4220 recA^−) were first examined. These strains have been described in the literature (Bayles et al., 1994). The RN4220 recA null mutant (RN4220 recA^−) contains the recA569 allele and is referred to KB103 in Bayles, et al., 1994. […] MICs were determined as described above.
Further details of the assay are as follows: Overnight mutant MG1655 or Staph cultures of clones were grown in 5 mL of LB with appropriate selective agents at 37° C. with shaking. A morning culture was started in a 96 well plate with 16 μL of cells into 1.6 mL of LB and the appropriate plasmid selective agent. […] Serial dilutions were done with 100 μL of drug into 100 μL of H2O. […] 20 μL of each log phase culture was put into a well of one row of a 96 well plate containing […] of LB and the appropriate selective agent. 4.5 μL of each drug concentration was arrayed into the 8 rows of a sterile 300 μL 96-well plate. 250 μL of inoculated culture was added to each column of the sterile 300 μL 96-well plate with drug. The final plate has a different clone in each column and a different Norfloxacin concentration in each row. Plates were grown overnight at 37° C. with shaking. The OD600 of the plate was measured after 16 hours.

CCn1cc(C(=O)O)c(=O)c2cc(F)c(N3CCNCC3)cc21 [Nor, norfloxacin]
MIC (RN4220, RN4220): 1.53 µg/mL
MIC (RN4220, RN4220 recA−): 0.38 µg/mL
